Target: Human RSK2 (Homo sapiens (Human), UniProt P51812)
Test: Human RSK2 assay (Kinase Glo Plus, residual ATP);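 further: recombinant human RSK2 phosphorylating a substrate peptide, 90 min at 28 °C, leftover ATP read by luminescence, RLU scaled between no-kinase background and uninhibited kinase controls, 4-parameter fit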
Format: biochemical

Sequence of Human RSK2 (P51812 whole entry): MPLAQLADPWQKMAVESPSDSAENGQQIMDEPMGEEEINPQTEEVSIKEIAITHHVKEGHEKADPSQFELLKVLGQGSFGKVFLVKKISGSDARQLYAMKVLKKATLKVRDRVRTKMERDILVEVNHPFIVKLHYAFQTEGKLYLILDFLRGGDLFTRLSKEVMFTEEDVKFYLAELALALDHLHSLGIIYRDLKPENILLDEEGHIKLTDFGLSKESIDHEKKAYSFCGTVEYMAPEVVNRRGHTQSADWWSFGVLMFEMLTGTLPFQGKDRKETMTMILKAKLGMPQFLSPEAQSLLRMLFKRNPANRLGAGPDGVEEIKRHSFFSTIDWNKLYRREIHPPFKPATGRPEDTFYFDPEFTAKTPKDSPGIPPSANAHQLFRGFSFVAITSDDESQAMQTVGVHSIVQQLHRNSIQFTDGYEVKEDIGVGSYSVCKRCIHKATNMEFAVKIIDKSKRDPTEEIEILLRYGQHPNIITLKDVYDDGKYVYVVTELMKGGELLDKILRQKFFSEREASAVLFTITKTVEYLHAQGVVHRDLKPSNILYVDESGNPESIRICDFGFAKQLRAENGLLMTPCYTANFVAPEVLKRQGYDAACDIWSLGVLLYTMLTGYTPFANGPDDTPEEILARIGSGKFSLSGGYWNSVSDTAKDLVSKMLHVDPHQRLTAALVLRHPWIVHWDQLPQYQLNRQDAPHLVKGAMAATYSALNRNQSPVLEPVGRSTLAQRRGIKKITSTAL

Structure (SMILES) | IC50 [nM]
COc1ccc(NC(=O)c2ccc3cc4n(c3c2)CCCNC4=O)cc1 [Example 149, N-(4-methoxyphenyl)-1-oxo-2,3,4,5-tetrahydro-1H-[1,4]diazepino[1,2-a]indole-8-carboxamide] | 110
Cc1nn(C)c2ncc(NC(=O)c3ccc4cc5n(c4c3)CCCNC5=O)cc12 [Example 189, N-(1,3-dimethyl-1H-pyrazolo[3,4-b]pyridin-5-yl)-1-oxo-2,3,4,5-tetrahydro-1H-[1,4]diazepino[1,2-a]indole-8-carboxamide] | 1300
O=C(Nc1cc(-c2ccccc2)[nH]n1)c1ccc2cc3n(c2c1)CCCNC3=O [Example 218, 1-oxo-N-(5-phenyl-1H-pyrazol-3-yl)-2,3,4,5-tetrahydro-1H-[1,4]diazepino[1,2-a]indole-8-carboxamide] | 40
O=C(Nc1cccc(Cl)c1)c1ccc2cc3n(c2c1)CCCNC3=O [Example 1, N-(3-chlorophenyl)-1-oxo-2,3,4,5-tetrahydro-1H-[1,4]diazepino[1,2-a]indole-8-carboxamide] | 270
Cc1cc(NC(=O)c2ccc3cc4n(c3c2)C(C)CNC4=O)no1 (stereo not drawn) [Example 174, 4-methyl-N-(5-methyl-1,2-oxazol-3-yl)-1-oxo-1,2,3,4-tetrahydropyrazino[1,2-a]indole-7-carboxamide] | 34
Cc1cc(NC(=O)c2ccc3cc4n(c3c2)CC2(CC2)CNC4=O)no1 [Example 127, N-(5-methyl-1,2-oxazol-3-yl)-1′-oxo-2′,3′-dihydro-1′H-spiro[cyclopropane-1,4′-[1,4]diazepino[1,2-a]indole]-8′-carboxamide] | 145
O=C(Nc1cccc(-c2c[nH]cn2)c1)c1ccc2cc3n(c2c1)CCCNC3=O [Example 226, N-[3-(1H-imidazol-4-yl)phenyl]-1-oxo-2,3,4,5-tetrahydro-1H-[1,4]diazepino[1,2-a]indole-8-carboxamide] | 52
O=C(Nc1nc2ccccc2o1)c1ccc2cc3n(c2c1)CCCNC3=O [Example 112, N-(1,3-benzoxazol-2-yl)-1-oxo-2,3,4,5-tetrahydro-1H-[1,4]diazepino[1,2-a]indole-8-carboxamide] | 370
CC(C)c1cc(NC(=O)c2ccc3cc4n(c3c2)CCCNC4=O)no1 [Example 213, 1-oxo-N-[5-(propan-2-yl)-1,2-oxazol-3-yl]-2,3,4,5-tetrahydro-1H-[1,4]diazepino[1,2-a]indole-8-carboxamide] | 66
O=C(Nc1cc(C(F)(F)F)no1)c1ccc2cc3n(c2c1)CCCNC3=O [Example 207, 1-oxo-N-[3-(trifluoromethyl)-1,2-oxazol-5-yl]-2,3,4,5-tetrahydro-1H-[1,4]diazepino[1,2-a]indole-8-carboxamide] | 85
CC(=O)N1CCC(n2c(NC(=O)c3ccc4cc5n(c4c3)CCCNC5=O)nc3ccccc32)CC1 [Example 78, N-[1-(1-acetylpiperidin-4-yl)-1H-benzimidazol-2-yl]-1-oxo-2,3,4,5-tetrahydro-1H-[1,4]diazepino[1,2-a]indole-8-carboxamide] | 58
Cc1ccc(-c2cc(NC(=O)c3ccc4cc5n(c4c3)CCCNC5=O)on2)cc1 [Example 199, N-[3-(4-methylphenyl)-1,2-oxazol-5-yl]-1-oxo-2,3,4,5-tetrahydro-1H-[1,4]diazepino[1,2-a]indole-8-carboxamide] | 115
Cc1cc(NC(=O)c2ccc3cc4n(c3c2)CC2(CCC2)CNC4=O)no1 [Example 170, N-(5-methyl-1,2-oxazol-3-yl)-1′-oxo-2′,3′-dihydro-1′H-spiro[cyclobutane-1,4′-[1,4]diazepino[1,2-a]indole]-8′-carboxamide] | 1300
COc1cccc(NC(=O)c2ccc3cc4n(c3c2)CCCNC4=O)c1 [Example 148, N-(3-methoxyphenyl)-1-oxo-2,3,4,5-tetrahydro-1H-[1,4]diazepino[1,2-a]indole-8-carboxamide] | 190
O=C(Nc1nnc(Cc2ccccc2)s1)c1ccc2cc3n(c2c1)CCCNC3=O [Example 117, N-(5-benzyl-1,3,4-thiadiazol-2-yl)-1-oxo-2,3,4,5-tetrahydro-1H-[1,4]diazepino[1,2-a]indole-8-carboxamide] | 98
O=C(Nc1ccccc1Cl)c1ccc2cc3n(c2c1)CCCNC3=O [Example 216, N-(2-chlorophenyl)-1-oxo-2,3,4,5-tetrahydro-1H-[1,4]diazepino[1,2-a]indole-8-carboxamide] | 6000
O=C(Nc1ncc[nH]1)c1ccc2cc3n(c2c1)CCCNC3=O [Example 108, N-(1H-imidazol-2-yl)-1-oxo-2,3,4,5-tetrahydro-1H-[1,4]diazepino[1,2-a]indole-8-carboxamide] | 25.5
O=C(Nc1cc(-c2cccnc2)no1)c1ccc2cc3n(c2c1)CCCNC3=O [Example 210, 1-oxo-N-[3-(pyridin-3-yl)-1,2-oxazol-5-yl]-2,3,4,5-tetrahydro-1H-[1,4]diazepino[1,2-a]indole-8-carboxamide] | 30
CC(C)n1ncc2cc(NC(=O)c3ccc4cc5n(c4c3)CCCNC5=O)cnc21 [Example 19, 1-oxo-N-[1-(propan-2-yl)-1H-pyrazolo[3,4-b]pyridin-5-yl]-2,3,4,5-tetrahydro-1H-[1,4]diazepino[1,2-a]indole-8-carboxamide] | 53
CC(C)(C)c1cc(NC(=O)c2ccc3cc4n(c3c2)CCCNC4=O)no1 [Example 175, N-(5-tert-butyl-1,2-oxazol-3-yl)-1-oxo-2,3,4,5-tetrahydro-1H-[1,4]diazepino[1,2-a]indole-8-carboxamide] | 150
Cn1ncc2cc(NC(=O)c3ccc4cc5n(c4c3)CCCNC5=O)cnc21 [Example 20, N-(1-methyl-1H-pyrazolo[3,4-b]pyridin-5-yl)-1-oxo-2,3,4,5-tetrahydro-1H-[1,4]diazepino[1,2-a]indole-8-carboxamide] | 87
CC(C)(C)n1cc(NC(=O)c2ccc3cc4n(c3c2)CCCNC4=O)cn1 [Example 191, N-(1-tert-butyl-1H-pyrazol-4-yl)-1-oxo-2,3,4,5-tetrahydro-1H-[1,4]diazepino[1,2-a]indole-8-carboxamide] | 48
O=C(Nc1ccccc1)c1ccc2cc3n(c2c1)CCCNC3=O [Example 178, 1-oxo-N-phenyl-2,3,4,5-tetrahydro-1H-[1,4]diazepino[1,2-a]indole-8-carboxamide] | 290

Now from value to compound:

IC50 [nM] | Structure (SMILES)
0.6 | CCn1c(NC(=O)c2ccc3cc4n(c3c2)C(C)CCNC4=O)nc2ccccc21 (stereo not drawn) [Example 166, N-(1-ethyl-1H-benzimidazol-2-yl)-5-methyl-1-oxo-2,3,4,5-tetrahydro-1H-[1,4]diazepino[1,2-a]indole-8-carboxamide]
13.7 | C[C@H]1NC(=O)c2cc3ccc(C(=O)Nc4nc5ccccc5n4CCCN(C)C)cc3n2[C@H]1C [Example 141, (3R,4S)-N-{1-[3-(dimethylamino)propyl]-1H-benzimidazol-2-yl}-3,4-dimethyl-1-oxo-1,2,3,4-tetrahydropyrazino[1,2-a]indole-7-carboxamide]
13 | CC1CNC(=O)c2cc3ccc(C(=O)Nc4nc5ccccc5n4CCCN(C)C)cc3n2C1 (stereo not drawn) [Example 101, N-{1-[3-(dimethylamino)propyl]-1H-benzimidazol-2-yl}-4-methyl-1-oxo-2,3,4,5-tetrahydro-1H-[1,4]diazepino[1,2-a]indole-8-carboxamide]
10 | C[C@@H]1NC(=O)c2cc3ccc(C(=O)Nc4cnn(Cc5ccccc5)c4)cc3n2[C@H]1C (relative stereo) [Example 30, N-(1-benzyl-1H-pyrazol-4-yl)-trans-3,4-dimethyl-1-oxo-1,2,3,4-tetrahydropyrazino[1,2-a]indole-7-carboxamide]
19 | CC(C)n1ncc2cc(NC(=O)c3ccc4cc5n(c4c3)C(C)CCNC5=O)cnc21 (stereo not drawn) [Example 162, 5-methyl-1-oxo-N-[1-(propan-2-yl)-1H-pyrazolo[3,4-b]pyridin-5-yl]-2,3,4,5-tetrahydro-1H-[1,4]diazepino[1,2-a]indole-8-carboxamide]
5.4 | CC(C)(O)Cn1c(NC(=O)c2ccc3cc4n(c3c2)CCCNC4=O)nc2ccccc21 [Example 85, N-[1-(2-hydroxy-2-methylpropyl)-1H-benzimidazol-2-yl]-1-oxo-2,3,4,5-tetrahydro-1H-[1,4]diazepino[1,2-a]indole-8-carboxamide]
6.6 | Cc1cc(NC(=O)c2ccc3cc4n(c3c2)[C@H](C)CNC4=O)no1 [Example 128, (4R)-4-methyl-N-(5-methyl-1,2-oxazol-3-yl)-1-oxo-1,2,3,4-tetrahydropyrazino[1,2-a]indole-7-carboxamide]
0.77 | CC1CCNC(=O)c2cc3ccc(C(=O)Nc4nc5ccccc5[nH]4)cc3n21 (stereo not drawn) [Example 58, N-(1H-benzimidazol-2-yl)-5-methyl-1-oxo-2,3,4,5-tetrahydro-1H-[1,4]diazepino[1,2-a]indole-8-carboxamide]
1.8 | CC1(C)CNC(=O)c2cc3ccc(C(=O)Nc4cnn(Cc5ccccc5)c4)cc3n21 [Example 134, N-(1-benzyl-1H-pyrazol-4-yl)-4,4-dimethyl-1-oxo-1,2,3,4-tetrahydropyrazino[1,2-a]indole-7-carboxamide]
12 | Cc1cc(NC(=O)c2ccc3cc4n(c3c2)[C@H](C)CCNC4=O)no1 [Example 225, (5R)-5-methyl-N-(5-methyl-1,2-oxazol-3-yl)-1-oxo-2,3,4,5-tetrahydro-1H-[1,4]diazepino[1,2-a]indole-8-carboxamide]
0.62 | Cn1c(NC(=O)c2ccc3cc4n(c3c2)C(C)(C)CNC4=O)nc2ccccc21 [Example 59, 4,4-dimethyl-N-(1-methyl-1H-benzimidazol-2-yl)-1-oxo-1,2,3,4-tetrahydropyrazino[1,2-a]indole-7-carboxamide]
25 | O=C(Nc1nc2ccccc2n1C1CCCC1)c1ccc2cc3n(c2c1)CCCNC3=O [Example 75, N-(1-cyclopentyl-1H-benzimidazol-2-yl)-1-oxo-2,3,4,5-tetrahydro-1H-[1,4]diazepino[1,2-a]indole-8-carboxamide]
4.8 | O=C(Nc1nc2ccccc2n1CC(F)(F)F)c1ccc2cc3n(c2c1)CCCNC3=O [Example 87, 1-oxo-N-[1-(2,2,2-trifluoroethyl)-1H-benzimidazol-2-yl]-2,3,4,5-tetrahydro-1H-[1,4]diazepino[1,2-a]indole-8-carboxamide]

— US9150577B2, “Heterocyclic compounds containing an indole core” (Boehringer Ingelheim International GmbH, priority 2009, dated 2015)
